This passage reports IC50 results from US20140128385A1 (NOVARTIS AG, priority 2011, published 2014).

The term IC50 denotes the concentration that gives 50% inhibition.

Counter-ions that a name gives are not always drawn. A value given as a limit tells only on which side of the number the result lay.

The target in the experiment is T1, BACE-2 (Homo sapiens, UniProt Q9Y5Z0).
T1 construct: Recombinant BACE-2 (extracellular domain, expressed in baculovirus and purified using standard methods); made in house
T1 sequence (Q9Y5Z0 63-473 limits assumed): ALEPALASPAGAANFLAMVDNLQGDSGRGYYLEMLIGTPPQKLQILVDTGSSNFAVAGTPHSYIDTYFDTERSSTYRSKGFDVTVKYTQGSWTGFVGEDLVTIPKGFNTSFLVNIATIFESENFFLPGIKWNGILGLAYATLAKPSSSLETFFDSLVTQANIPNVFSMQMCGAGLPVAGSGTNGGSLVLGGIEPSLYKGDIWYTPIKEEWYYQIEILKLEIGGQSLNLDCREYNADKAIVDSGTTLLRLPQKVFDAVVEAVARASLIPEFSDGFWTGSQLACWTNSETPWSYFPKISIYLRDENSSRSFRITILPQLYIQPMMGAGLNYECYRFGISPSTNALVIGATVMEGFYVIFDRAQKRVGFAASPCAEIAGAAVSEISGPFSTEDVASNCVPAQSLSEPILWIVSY
The experiment is described as follows: assay for inhibition of BACE-2. The experiment is classed as biochemical.
Regarding `CCOc1ccc(C(=O)Nc2ccc(F)c([C@]3(C(F)F)COCC(N)=N3)c2)nc1` [Example 120], the concentration for half-maximal inhibition (IC50) stood at 1060 nM.
As for `NC1=N[C@@](c2cc(NC(=O)c3cnc(C(F)F)cn3)ccc2F)(C(F)F)COC1` [Example 122], the concentration for half-maximal inhibition (IC50) turned out to be 514 nM.
Consider `NC1=N[C@@](c2cc(NC(=O)c3cnc(OCC(F)F)cn3)ccc2F)(C(F)F)COC1` [Example 123], for which the IC50 was 1830 nM.
In turn, `NC1=N[C@@](c2cc(NC(=O)c3cnc(OCC(F)(F)F)cn3)ccc2F)(C(F)F)COC1` [Example 124] had a half-maximal inhibitory concentration (IC50) of 1630 nM.
`NC1=N[C@@](c2cc(NC(=O)c3cc(Br)co3)ccc2F)(C(F)F)COC1` [Example 125] came in with an IC50 of 102 nM.
Regarding `NC1=N[C@@](c2cc(NC(=O)c3cc4ccccn4n3)ccc2F)(C(F)F)COC1` [Example 126], the 50% inhibitory concentration (IC50) stood at 550 nM.
Take `Cc1nc(C(=O)Nc2ccc(F)c([C@]3(C(F)F)COCC(N)=N3)c2)co1` [Example 127]: the midpoint of inhibition, the IC50, lay at 35 nM.
As for `Cc1nc(C(=O)Nc2ccc(F)c([C@]3(C(F)F)COCC(N)=N3)c2)c(C)o1` [Example 128], the midpoint of inhibition, the IC50, lay at 95 nM.
With `NC1=N[C@@](c2cc(NC(=O)c3cn4ccccc4n3)ccc2F)(C(F)F)COC1` [Example 129], half-maximal inhibition (IC50) was put at 1630 nM.
To `COc1cc(Br)cnc1C(=O)Nc1ccc(F)c([C@]2(C(F)F)COCC(N)=N2)c1` [Example 130] belongs 42 nM.
For `CCc1nc(C(=O)Nc2ccc(F)c([C@]3(C(F)F)COCC(N)=N3)c2)co1` [Example 131], the midpoint of inhibition, the IC50, lay at 67 nM.
For `NC1=N[C@@](c2cc(NC(=O)c3ccc(C(F)F)cn3)ccc2F)(C(F)F)COC1` [Example 132], the half-maximal inhibitory concentration (IC50) worked out at 180 nM.
The value for `Cn1ccnc1C(=O)Nc1ccc(F)c([C@]2(C(F)F)COCC(N)=N2)c1` [Example 133] was 573 nM; that for `NC1=N[C@@](c2cc(NC(=O)c3ccc(O)nn3)ccc2F)(C(F)F)COC1` [Example 134] was 844 nM.
In turn, `COCCOc1cnc(C(=O)Nc2ccc(F)c([C@]3(C(F)F)COCC(N)=N3)c2)cn1` [Example 135] returned a half-maximal inhibitory concentration (IC50) of 1090 nM.
To `NC1=N[C@@](c2cc(NC(=O)c3cnc(OCCF)cn3)ccc2F)(C(F)F)COC1` [Example 136] belongs 1140 nM.
Take `NC1=N[C@@](c2cc(NC(=O)c3ccc(Cl)cn3)ccc2F)(C(F)F)COC1` [Example 137]: 18 nM corresponded to half-maximal inhibition (IC50).
In turn, `NC1=N[C@@](c2cc(NC(=O)c3ccc(OC(F)F)cn3)ccc2F)(C(F)F)COC1` [Example 138] showed an IC50 of 458 nM.
`NC1=N[C@@](c2cc(NC(=O)c3ccc(OCF)cn3)ccc2F)(C(F)F)COC1` [Example 139] came in with an IC50 of 106 nM.
`NC1=N[C@@](c2cc(NC(=O)c3ncc(Cl)cc3F)ccc2F)(C(F)F)COC1` [Example 140] had a 50% inhibitory concentration (IC50) of 15 nM.
To `NC1=N[C@@](c2cc(NC(=O)c3cnc(Cl)cn3)ccc2F)(C(F)F)COC1` [Example 141] belongs 43 nM; to `Cc1cc(C(=O)Nc2ccc(F)c([C@]3(C(F)F)COCC(N)=N3)c2)n[nH]1` [Example 142], 522 nM; to `Cc1ccc(C(=O)Nc2ccc(F)c([C@]3(C(F)F)COCC(N)=N3)c2)nc1` [Example 143], 66 nM.
Take `Cc1cc(C#N)cnc1C(=O)Nc1ccc(F)c([C@]2(C(F)F)COCC(N)=N2)c1` [Example 144]: it took 51 nM to reach half-maximal inhibition (IC50).
The compound `NC1=N[C@@](c2cc(NC(=O)c3cnc(O)cn3)ccc2F)(C(F)F)COC1` [Example 145] had an IC50 of 697 nM.
`Cl.[2H]c1nc(C(=O)Nc2ccc(F)c([C@]3(C(F)F)COCC(N)=N3)c2)c(C([2H])([2H])[2H])c([2H])c1C#N` [Example 147] displayed an IC50 of 165 nM.
`Cc1nc(C(=O)Nc2ccc(F)c([C@]3(C(F)F)COCC(N)=N3)c2)cs1` [Example 148] showed an IC50 of 287 nM.
In the case of `Cc1cnc(C(=O)Nc2ccc(F)c([C@]3(C(F)F)COCC(N)=N3)c2)s1` [Example 149], the IC50 turned out to be 476 nM.
In turn, `Cn1ccc(C(=O)Nc2ccc(F)c([C@]3(C(F)F)COCC(N)=N3)c2)n1` [Example 150] displayed an IC50 of 61 nM.
Compound `Cn1cc([N+](=O)[O-])c(C(=O)Nc2ccc(F)c([C@]3(C(F)F)COCC(N)=N3)c2)n1` [Example 151] showed a concentration for half-maximal inhibition (IC50) of 376 nM.
`C[C@@]1(c2cc(NC(=O)c3ncc(Cl)cc3N)ccc2F)CO[C@@](C)(C(F)(F)F)C(N)=N1` [Example 153, 3-Amino-5-chloro-pyridine-2-carboxylic acid [3-((3R,6R)-5-amino-3,6-dimethyl-6-trifluoromethyl-3,6-dihydro-2H-[1,4]oxazin-3-yl)-4-fluoro-phenyl]-amide hydrochloride]: 3 nM corresponded to half-maximal inhibition (IC50).
`CC1(c2cc(NC(=O)c3ncc(C(F)(F)F)cc3Cl)ccc2F)N=C(N)COCC1(F)F` (stereo not drawn) [Example 154, 3-Chloro-5-trifluoromethyl-pyridine-2-carboxylic acid [3-(3-amino-6,6-difluoro-5-methyl-2,5,6,7-tetrahydro-[1,4]oxazepin-5-yl)-4-fluoro-phenyl]-amide] came in with a half-inhibitory concentration (IC50) of 408 nM.
For the compound `COc1cc(Br)cnc1C(=O)Nc1ccc(F)c(C2(C)N=C(N)COCC2(F)F)c1` (stereo not drawn) [Example 155, 5-Bromo-3-methoxy-pyridine-2-carboxylic acid [3-(3-amino-6,6 difluoro-5-methyl-2,5,6,7 tetrahydro-[1,4]oxazepin-5-yl)-4 fluoro-phenyl]-amide], half-maximal inhibition (IC50) required 43 nM.
Regarding `CC1(c2cc(NC(=O)c3ccc(C#N)cn3)ccc2F)N=C(N)COCC1(F)F` (stereo not drawn) [Example 156, 5-Cyano-pyridine-2-carboxylic acid [3-(3-amino-6,6-difluoro-5 methyl-2,5,6,7-tetrahydro[1,4]oxazepin-5-yl)-4 fluoro-phenyl]-amide], half-maximal inhibition (IC50) was put at 90 nM.
As to `NC1=N[C@@](c2cc(NC(=O)c3cc4cncnc4[nH]3)ccc2F)(C(F)F)COC1` [Example 157, 7H-Pyrrolo[2,3-d]pyrimidine-6-carboxylic acid [3-((R)-5-amino-3-difluoromethyl-3,6-dihydro-2H-[1,4]oxazin-3-yl)-4-fluoro-phenyl]-amide hydrochloride], the concentration for half-maximal inhibition (IC50) is > 10000 nM.
The compound `COCCOc1cnc(C(=O)Nc2ccc(F)c([C@]3(C(F)F)COCC(N)=N3)c2)c(N)n1` [Example 158, 3-Amino-5-(2-methoxy-ethoxy)-pyrazine-2-carboxylic acid [3-((R)-5-amino-3-difluoromethyl-3,6-dihydro-2H-[1,4]oxazin-3-yl)-4-fluoro-phenyl]-amide] returned a half-inhibitory concentration (IC50) of 3380 nM.
In turn, `CCc1ccc(C(=O)Nc2ccc(F)c([C@]3(C(F)F)COCC(N)=N3)c2)nc1` [Example 159, hydrochloride] gave an IC50 of 119 nM.
The value for `NC1=N[C@@](c2cc(NC(=O)c3ncc(Cl)cc3N)ccc2F)(C(F)F)COC1` [Example 160, 3-Amino-5-chloro-pyridine-2-carboxylic acid [3-((R)-5-amino-3-difluoromethyl-3,6-dihydro-2H-[1,4]oxazin-3-yl)-4-fluoro-phenyl]-amide hydrochloride] was 8 nM; that for `COc1cnc(C(=O)Nc2ccc(F)c([C@]3(C(F)F)COCC(N)=N3)c2)c(Cl)c1` [Example 161, 3-Chloro-5-methoxy-pyridine-2-carboxylic acid [3-((R)-5-amino-3-difluoromethyl-3,6-dihydro-2H-[1,4]oxazin-3-yl)-4-fluoro-phenyl]-amide] was 82 nM.
For `NC1=N[C@@](c2cc(NC(=O)c3ccc(=O)[nH]c3)ccc2F)(C(F)F)COC1` [Example 162, 6-Oxo-1,6-dihydro-pyridine-3-carboxylic acid [3-((R)-5-amino-3-difluoromethyl-3,6-dihydro-2H-[1,4]oxazin-3-yl)-4-fluoro-phenyl]-amide hydrochloride], the IC50 is > 10000 nM.
`NC1=N[C@@](c2cc(NC(=O)c3cc4cccn4cn3)ccc2F)(C(F)F)COC1` [Example 163, Pyrrolo[1,2-c]pyrimidine-3-carboxylic acid [3-((R)-5-amino-3-difluoromethyl-3,6-dihydro-2H-[1,4]oxazin-3-yl)-4-fluoro-phenyl]-amide] came in with an IC50 of 405 nM.
With `CC#CCOc1cnc(C(=O)Nc2ccc(F)c([C@]3(C(F)F)COCC(N)=N3)c2)cn1` [Example 164, 5-But-2-ynyloxy-pyrazine-2-carboxylic acid [3-((R)-5-amino-3-difluoromethyl-3,6-dihydro-2H-[1,4]oxazin-3-yl)-4-fluoro-phenyl]-amide hydrochloride], 76 nM corresponded to half-maximal inhibition (IC50).
To `NC1=N[C@@](c2cc(NC(=O)c3ncc(Br)cc3N)ccc2F)(C(F)F)COC1` [Example 165, 3-Amino-5-bromo-pyridine-2-carboxylic acid [3-((R)-5-amino-3-difluoromethyl-3,6-dihydro-2H-[1,4]oxazin-3-yl)-4-fluoro-phenyl]-amide hydrochloride] belongs 5 nM; to `CCn1ccnc1C(=O)Nc1ccc(F)c([C@]2(C(F)F)COCC(N)=N2)c1` [Example 166, 1-Ethyl-1H-imidazole-2-carboxylic acid [3-((R)-5-amino-3-difluoromethyl-3,6-dihydro-2H-[1,4]oxazin-3-yl)-4-fluoro-phenyl]-amide hydrochloride], 378 nM; to `C#CCOc1cnc(C(=O)Nc2ccc(F)c([C@]3(C(F)F)COCC(N)=N3)c2)cn1` [Example 167, 5-Prop-2-ynyloxy-pyrazine-2-carboxylic acid [3-((R)-5-amino-3-difluoromethyl-3,6-dihydro-2H-[1,4]oxazin-3-yl)-4-fluoro-phenyl]-amide hydrochloride], 172 nM.
